The values that follow come from patent EP2935231B1, “C-XYLOSIDE COMPOUNDS, COMPOSITIONS AND USE THEREOF TO DEPIGMENT THE SKIN” (L'OREAL, priority 2012, dated 2014).

The term IC50 denotes the point on the concentration scale where inhibition reaches its midpoint.

Where two headings read alike, the source gives them in different places.

One data set concerns synthèse de la mélanine. The data set can be described thus: Inhibition of melanin synthesis in keratinocyte/melanocyte coculture (ratio of thiouracil to leucine incorporation). Type of data set: cell-based. Conditions: concentration at which 50 % of melanin synthesis is inhibited; thiouracil/leucine incorporation relative to 100 % of control.
Data set [1] has as its system coculture de kératinocytes et de mélanocytes. In words: Cytotoxicity on keratinocyte/melanocyte coculture (leucine incorporation). Conditions: coculture of keratinocytes and melanocytes.
Excerpt: (§1) Ce test est réalisé sur coculture de kératinocytes et de mélanocytes.
(§2) Pour le composé testé, il a été déterminé : • la cytotoxicité, en estimant l'incorporation de la leucine, • l'activité inhibitrice sur la synthèse de la mélanine, en estimant le rapport de l'incorporation de thiouracile à l'incorporation de leucine, rapporté à 100 % du témoin (le témoin correspond au test réalisé sans composé à testé). Les valeurs des IC50 (concentration pour laquelle 50 % de la synthèse de la mélanine est inhibée) ont été déterminées.
Data set [2] has the same test system.
Excerpt: as §1, §2
Data set [3] deals with modèle de peau reconstruite complet comprenant un derme vivant. In words: Pigmentation in complete reconstructed skin model with living dermis, pigmentation induced by forskolin. Type of data set: cell-based. An excerpt:
L'activité du composé 1 a été évaluée sur le modèle de peau reconstruite complet décrit dans le brevet FR2928654 selon le procédé décrit dans le brevet FR2930644.
Le composé 1 a été ajouté au milieu de culture pendant une période de 16 jours à partir du 2eme jour de la phase d'émersion. La pigmentation a été induite par la Forskoline ajoutée pendant une période de 14 jours à partir du 4eme jour d'émersion (condition contrôle positif pigmenté).
Le composé 1 a montré une activité dépigmentante sur les paramètres suivants : • Luminance (clarté de la peau) plus la valeur de luminance est élevée plus l'échantillon de peau est clair : • augmentation significative de 6 points de la luminance pour le composé1 (Valeur de L contrôle positif = 63, valeur de L traitement par molécule 1 à 1 mM = 69) • Quantification de la mélanine par analyse d'images sur des coupes colorées au Fontana Masson (coloration argentique des grains de mélanine) : réduction de 60% de la quantité de mélanine par le composé 1 (contrôle positif = valeur arbitraire de 100%, composé 1 à 1 mM = 39,48%).

Excerpt for synthèse de la mélanine: as §1, §2

On to `OC[C@H]1O[C@@H](Oc2ccc(O)cc2)[C@H](O)[C@@H](O)[C@@H]1O` [Arbutine], for which the IC50 with synthèse de la mélanine was over 500 µM. For the same molecule, in data set [1], the Cytotoxicité sur co-culture result was “Non cytotoxique”.

For `Oc1ccc(CCC(O)CC2OC[C@@H](O)[C@H](O)[C@H]2O)c(O)c1` (stereo partly drawn) [Composé 11, (3R,4S,5R)-2-[2-hydroxy-4-(2,4-di-hydroxy-phenyl)butyl]tetrahydro-2H-pyran-3,4,5-triol], the IC50 in the data set with synthèse de la mélanine was 145 µM. The Cytotoxicité sur co-culture entry in data set [2] is on record as “Non cytotoxique”.

Consider `O=c1cc(CO)occ1O` [Acide kojique], for which the IC50 in the data set with synthèse de la mélanine is over 500 µM. This molecule also showed a Cytotoxicité sur co-culture in data set [1] of 100 µM.

Regarding `COc1cc(CCC(O)CC2OC[C@@H](O)[C@H](O)[C@H]2O)ccc1O` (stereo partly drawn) [Composé 1, (3R,4S,5R)-2-[2-hydroxy-4-(4-hydroxy-3-methoxyphenyl)butyl]tetrahydro-2H-pyran-3,4,5-triol], the “valeur de L (luminance)” value in data set [3] (1 mM, 16 days in culture medium, forskolin-induced pigmentation, higher = lighter skin) was found to be 69. Further, in data set [3] (1 mM, 16 days in culture medium, versus forskolin positive control (L = 63)), the “augmentation de la luminance” value stood at 6 points. In addition, in data set [3] (1 mM, image analysis of Fontana Masson stained sections), the “quantité de mélanine (contrôle positif = valeur arbitraire de 100%)” value was 39,48%. Also, in data set [3] (1 mM, image analysis of Fontana Masson stained sections, versus positive control), the “réduction de la quantité de mélanine” value was determined as 60%. Besides, the effet toxique result in data set [3] (histology (morphology of reconstructed skin) and number of melanocytes (TRP1 labelling, DOPA reaction on epidermal sheet)) is reported as “absence d'effet toxique”.
